Measured values: PMC11347150, “Aurora: a fluorescent deoxyribozyme for high-throughput screening” (Nucleic Acids Research, 2024)

How the values were obtained:
Nsp15 = Nsp15 (Severe acute respiratory syndrome coronavirus 2, UniProt P0DTD1); conditions: 1 mM ZnCl2, negative control wells
Experimental: Small molecules from a 1000-member fragment screen library (Maybridge) were transferred to the wells of 384-well plates using an Echo 550 liquid handler. Nsp15 protein in 1 × Nsp15 buffer (50 mM KCl, 20 mM HEPES pH 7.4, 5 mM MnCl2, 0.003% (v/v) Tween20) was then added using a CERTUS Flex liquid handler. After mixing, the Aurora Nsp15 sensor (in 1 × Nsp15 buffer) was added using a CERTUS Flex liquid handler. Reactions were mixed again. Final concentrations were 25 μM Aurora Nsp15 sensor, 400 nM Nsp15 protein, 1 × Nsp15 buffer (50 mM KCl, 20 mM HEPES pH 7.4 and 5 mM MnCl2), 0.003% (v/v) Tween20, and 200 μM small molecule from the fragment screen library in a volume of 20 μl. […] The reaction mixture was incubated at room temperature for 4 h, and fluorescence was measured using a Tecan Spark plate reader. Fluorescence was measured in a black flat bottom 384-well plate (Corning).
The average value of this background was subtracted from the fluorescence values obtained from all other wells. […] Activity of Nsp15 in the presence of small molecules from the fragment screen library was calculated relative to this positive control value. Z-factors ([22]) were calculated for each 384-well plate to determine the quality of the screen. […]

[1] = set-up: method as in PMID 9873685, PMID 18355003; conditions: pH 10; cited from earlier work

| Structure (SMILES) | inhibition of Nsp15 (Nsp15) | Brightness (ϵ × Φ) [1] | Extinction coefficient (ϵ) [1] | Maximum emission wavelength (λem) [1] [nm] | Maximum excitation wavelength (λmax) [1] [nm] | Quantum yield (Φ) [1] |
| --- | --- | --- | --- | --- | --- | --- |
| [Cl-].[Cl-].[Zn+2] [ZnCl2] | inhibited Nsp15 |  |  |  |  |  |
| Cc1cc(=O)oc2cc(O)ccc12 [4-MU] |  | 10 710 M^−1 cm^−1 | 17 000 M^−1 cm^−1 | 450 | 360 | 0.63 |
